Structures can show the parent of a compound that is named as a salt.
Target: HSET full length protein (Homo sapiens (Human), UniProt Q9BW19)
Test: HSET ADP-Glo Assay S - 3 μM ATP
Assay type: biochemical
Details: 5 nM HSET, 70 μg/mL microtubule, 80 min at rt, read-out: COMBINED HSET ADP GLO IC50
In short: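 Full-length human HSET (5 nM) with paclitaxel-stabilised bovine brain microtubules (70 μg/mL) in HEPES pH 6.8 buffer was preincubated 10 min with compound. ATP at 3 μM started the reaction, which ran 80 min at rt. ADP formed was measured by ADP-Glo luminescence.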

HSET full length protein, sequence (Q9BW19 whole entry): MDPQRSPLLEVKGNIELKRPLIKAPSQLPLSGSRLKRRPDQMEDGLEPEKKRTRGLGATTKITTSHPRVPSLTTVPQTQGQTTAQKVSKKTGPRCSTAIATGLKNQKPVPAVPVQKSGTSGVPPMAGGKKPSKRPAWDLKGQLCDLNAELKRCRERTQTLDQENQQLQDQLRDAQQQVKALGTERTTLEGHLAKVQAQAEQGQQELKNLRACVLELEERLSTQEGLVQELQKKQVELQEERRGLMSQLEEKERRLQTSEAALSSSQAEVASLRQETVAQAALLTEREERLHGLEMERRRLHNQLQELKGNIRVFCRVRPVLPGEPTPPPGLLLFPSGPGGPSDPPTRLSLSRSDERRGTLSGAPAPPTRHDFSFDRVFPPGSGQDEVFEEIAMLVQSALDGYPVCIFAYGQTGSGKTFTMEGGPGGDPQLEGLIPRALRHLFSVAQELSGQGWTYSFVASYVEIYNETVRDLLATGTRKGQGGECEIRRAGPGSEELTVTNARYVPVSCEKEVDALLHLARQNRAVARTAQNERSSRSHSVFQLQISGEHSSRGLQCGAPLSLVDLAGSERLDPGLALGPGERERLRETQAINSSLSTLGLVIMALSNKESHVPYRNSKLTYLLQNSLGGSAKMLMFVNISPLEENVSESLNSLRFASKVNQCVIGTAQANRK

Row | SMILES | IC50 [nM]
1 | Cc1nc(NC(=O)[C@H]2C[C@@H](Nc3nccc4ccc(C(F)(F)F)cc34)C2)sc1C(=O)OC(C)(C)C [Example 109, tert-Butyl 4-methyl-2-((1s,3s)-3-((7-(trifluoromethyl)isoquinolin-1-yl)amino)cyclobutane-1-carboxamido)thiazole-5-carboxylate] | 1780
2 | Cc1nc(-c2ccc3ccnc(N[C@H]4C[C@@H](C(=O)Nc5nc(C)c(C(=O)OC(C)(C)C)s5)C4)c3c2)no1 [Example 110, tert-Butyl 4-methyl-2-[[3-[[7-(5-methyl-1,2,4-oxadiazol-3-yl)-1-isoquinolyl]amino]cyclobutanecarbonyl]amino]thiazole-5-carboxylate] | 8
3 | Cc1nc(-c2ccc3ccnc(N[C@H]4C[C@@H](C(=O)N(C)c5nc(C)c(C(=O)OC(C)(C)C)s5)C4)c3c2)no1 [Example 111, tert-Butyl 4-methyl-2-[methyl-[3-[[7-(5-methyl-1,2,4-oxadiazol-3-yl)-1-isoquinolyl]amino]cyclobutanecarbonyl]amino]thiazole-5-carboxylate] | 68
4 | Cc1nc(-c2ccc3ccnc(N[C@H]4C[C@@H](C(=O)Nc5nc(Cl)c(C(=O)OC(C)(C)C)s5)C4)c3c2)no1 [Example 112, tert-Butyl 4-chloro-2-[[3-[[7-(5-methyl-1,2,4-oxadiazol-3-yl)-1-isoquinolyl]amino]cyclobutanecarbonyl]amino]thiazole-5-carboxylate] | 54
5 | Cc1nc(-c2ccc3ccnc(N[C@H]4C[C@@H](C(=O)Nc5nc(Cl)c(C(=O)NC(C)(C)C)s5)C4)c3c2)no1 [Example 113, N-tert-butyl-4-chloro-2-[[3-[[7-(5-methyl-1,2,4-oxadiazol-3-yl)-1-isoquinolyl]amino]cyclobutanecarbonyl]amino]thiazole-5-carboxamide] | 1380
6 | CCOC(=O)c1sc(NC(=O)[C@H]2C[C@@H](Nc3nccc4ccc(-c5noc(C)n5)cc34)C2)nc1C(F)F [Example 116, Ethyl-4-(difluoromethyl)-2-[[3-[[7-(5-methyl-1,2,4-oxadiazol-3-yl)-1-isoquinolyl]amino]cyclobutanecarbonyl]amino]thiazole-5-carboxylate] | 144
7 | Cc1ccc2ccnc(N[C@H]3C[C@@H](C(=O)Nc4nc(C)c(C(C)(C)C)s4)C3)c2c1 [Example 117, N-(5-tert-butyl-4-methyl-thiazol-2-yl)-3-[(7-methyl-1-isoquinolyl)amino]cyclobutanecarboxamide] | 9490
8 | Cc1noc(-c2sc(NC(=O)CCNC(=O)c3cccc(-c4noc(C)n4)c3)nc2C)n1 [Example 118, 3-(5-methyl-1,2,4-oxadiazol-3-yl)-N-(3-((4-methyl-5-(3-methyl-1,2,4-oxadiazol-5-yl)thiazol-2-yl)amino)-3-oxopropyl)benzamide] | 8410
9 | CCCOC(=O)c1cc(NC(=O)CCNC(=O)c2cccc(-c3noc(C)n3)c2)nn1C [Example 120, Propyl-1-methyl-3-(3-(3-(5-methyl-1,2,4-oxadiazol-3-yl)benzamido)propanamido)-1 H-pyrazole-5-carboxylate] | 157
10 | CCCOC(=O)c1sc(N(C)C(=O)CCNC(=O)c2cccc(-c3noc(C)n3)c2)nc1C [Example 121, Propyl-4-methyl-2-(N-methyl-3-(3-(5-methyl-1,2,4-oxadiazol-3-yl)benzamido)propanamido)thiazole-5-carboxylate] | 36
11 | Cc1nc(-c2cccc(C(=O)NCCC(=O)Nc3nc(C)c(C(=O)OC4CCCC4)s3)c2)no1 [Example 122, Cyclopentyl-4-methyl-2-(3-(3-(5-methyl-1,2,4-oxadiazol-3-yl)benzamido)propanamido)thiazole-5-carboxylate] | 27
12 | CCCCCCOC(=O)c1sc(NC(=O)CCNC(=O)c2cccc(-c3noc(C)n3)c2)nc1C [Example 123, Hexyl-4-methyl-2-(3-(3-(5-methyl-1,2,4-oxadiazol-3-yl)benzamido)propanamido)thiazole-5-carboxylate] | 9

Other lines, results leading:

Row | IC50 [nM] | SMILES
13 | 14 | Cc1nc(-c2cccc(C(=O)NCCC(=O)Nc3nc(C)c(C(=O)OC4CCCCC4)s3)c2)no1 [Example 124, Cyclohexyl-4-methyl-2-(3-(3-(5-methyl-1,2,4-oxadiazol-3-yl)benzamido)propanamido)thiazole-5-carboxylate]
14 | 5590 | Cc1nc(-c2cccc(C(=O)NCCC(=O)Nc3nc(C)c(C(=O)OCCCCN)s3)c2)no1 [Example 125, 4-aminobutyl 4-methyl-2-(3-(3-(5-methyl-1,2,4-oxadiazol-3-yl)benzamido)propanamido)thiazole-5-carboxylate hydrochloride]
15 | 39 | COc1ccc(CCCOC(=O)c2sc(NC(=O)CCNC(=O)c3cccc(-c4noc(C)n4)c3)nc2C)cc1 [Example 126, 3-(4-methoxyphenyl)propyl 4-methyl-2-(3-(3-(5-methyl-1,2,4-oxadiazol-3-yl)benzamido)propanamido)thiazole-5-carboxylate]
16 | 55 | COCCOCCCCOC(=O)c1sc(NC(=O)CCNC(=O)c2cccc(-c3noc(C)n3)c2)nc1C [Example 127, 4-(2-methoxyethoxy)butyl 4-methyl-2-(3-(3-(5-methyl-1,2,4-oxadiazol-3-yl)benzamido)propanamido)thiazole-5-carboxylate]
17 | 14100 | COC(=O)c1cc(NC(=O)CCNC(=O)c2cccc(-c3noc(C)n3)c2)nn1C [Example 128, Methyl-2-methyl-5-[3-[[3-(5-methyl-1,2,4-oxadiazol-3-yl)benzoyl]amino]propanoylamino]pyrazole-3-carboxylate]
18 | 1130 | CCCC(C)c1sc(NC(=O)CCNC(=O)c2cccc(-c3noc(C)n3)c2)nc1C (centres unmarked) [Example 129, 3-(5-methyl-1,2,4-oxadiazol-3-yl)-N-(3-((4-methyl-5-(pentan-2-yl)thiazol-2-yl)amino)-3-oxopropyl)benzamide]
19 | 15400 | CC(=O)NCCCCOC(=O)c1sc(NC(=O)CCNC(=O)c2cccc(-c3noc(C)n3)c2)nc1C [Example 130, 4-Acetamidobutyl 4-methyl-2-(3-(3-(5-methyl-1,2,4-oxadiazol-3-yl)benzamido)propanamido)thiazole-5-carboxylate]
20 | 16 | CCCOC(=O)c1cc(NC(=O)CCNc2nccc3ccc(-c4noc(C)n4)cc23)nn1C [Example 131, Propyl-1-methyl-3-(3-((7-(5-methyl-1,2,4-oxadiazol-3-yl)isoquinolin-1-yl)amino)propanamido)-1 H-pyrazole-5-carboxylate formate]
21 | 10 | Cc1nc(-c2cccc(C(=O)NCCC(=O)Nc3nc(C)c(C(=O)OC(C)(C)C)s3)c2)no1 [Example 132, Tert-butyl-4-methyl-2-(3-(3-(5-methyl-1,2,4-oxadiazol-3-yl)benzamido)propanamido)thiazole-5-carboxylate]
22 | 93 | CCOC(=O)c1sc(NC(=O)CCNC(=O)c2cccc(-c3noc(C)n3)c2)cc1C [Example 133, Ethyl-3-methyl-5-[3-[[3-(5-methyl-1,2,4-oxadiazol-3-yl)benzoyl]amino]propanoylamino]thiophene-2-carboxylate]
23 | 1310 | CCCN(C(=O)CCNC(=O)c1cccc(-c2noc(C)n2)c1)c1nc(C)c(C(=O)OCC)s1 [Example 134, Ethyl-4-methyl-2-(3-(3-(5-methyl-1,2,4-oxadiazol-3-yl)benzamido)-N-propylpropanamido)thiazole-5-carboxylate]
